Experimental data reported in patent publication US20250066286A1, “COMPOSITIONS OF (Z)-ENDOXIFEN AND METHODS OF ENRICHMENT THEREOF” (Atossa Therapeutics, Inc., priority 2022, published 2025).
Converted amounts (≈) assume the structure as drawn. Like-named read-outs stand apart in the source and are kept apart here.

Assays:
[1] = Solvent mixture solubility tests of (Z)-endoxifen; type: physicochemical
Description: To test the solubility of (Z)-endoxifen in varying conditions, 10 mg of (Z)-endoxifen was added to a stoppered tube, and 0.01 ml of the selected solvent was added (1000 mg/ml solution). The tube was shaken vigorously for 1 minute and then incubated at a constant temperature of 25.0° C. for 15 minutes. If the solid was not completed dissolved, the tube was shaken again and placed at the constant temperature of 25.0° C. for another 15 minutes. If the solid was completely dissolved at this step, it was considered to be very soluble in the selected solvent system. If the solid was not dissolved by this step, another 0.09 ml was added (yielding a 100 mg/ml solution) and an attempt to further dissolve the solid was made by the same steps of shaking and incubating twice over as described previously. If the solid was completely dissolved at this step, it was considered freely soluble. If the solid was not dissolved by this step another 0.2 ml was added (yielding a 33.3 mg/ml solution) and an attempt to further dissolve the solid was made by the same steps of shaking and incubating twice over as described previously. If the solid was completely dissolved at this step, it was considered soluble. If the solid was not dissolved by this step another, 0.7 ml was added (yielding a 10 mg/ml solution) and an attempt to further dissolve the solid was made by the same steps of shaking and incubating twice over as described previously. If the solid was completely dissolved at this step, it was considered sparingly soluble. If the solid was not dissolved by this step the sample was considered to be slightly soluble or very slightly soluble and the solution was heated until the boiling point of the solvent system (max 100° C.) under stirring with a rate of 0.5° C. per minute temperature ramp rate to verify the solubility at high temperatures. The hot solution was after cooled to room temperature with a cooling rate of 0.5° C. per minute to verify if the sample had precipitated after up to 18 hours under magnetic stirring. The same procedure was also used for the solvent mixture solubility tests. The concentrations investigated for the solvent mixture stability were 40 mg/ml and 100 mg/ml. Some solutions in the following example were precipitated by cooling of the solution from a temperature between 50-100° C. to between 10-25° C. at a rate ranging from −0.2 to −0.5° C./minute resulting in a precipitate.

[2] = Scale-up crystallizations of (Z)-endoxifen Form I, Form IV, Form VII (XRPD); type: physicochemical; conditions: ethyl acetate 0.8 mL sat, heptane 4 mL, RT to −20 °C, 1 d
Description: The acetonitrile slurry method for generating Form I (EXAMPLE 5) was performed on a 800 mg-scale. For this crystallization, 800 mg (Z)-endoxifen was partially dissolved in 8 ml acetonitrile at a concentration of 100 mg/ml and left under magnetic stirring at 50° C. for 2 days. Solid (Z)-endoxifen was collected from the slurry and analyzed by XRPD, confirming that the resultant solid was Form I. The remaining slurry was then filtered with a 0.45p m paper filter under vacuum and analyzed by XRPD, which indicated a yield of 94% for the resultant Form I
The EXAMPLE 6 procedure for generating Form IV by precipitation from 2-propanol/ethyl acetate (50/50 v/v) systems was scaled to both 500 mg and 1 g. For these crystallizations, (Z)-endoxifen was added to 2-propanol/ethyl acetate 50/50 (v/v) mixtures to achieve concentrations of 100 mg/ml. The solvent mixtures were then heated to 65° C. Once complete dissolution of (Z)-endoxifen occurred, the solvent mixtures were cooled to 25° C. at a rate of 0.2° C./minute. The solutions were maintained at 25° C. with stirring for 18 hours, and then vacuum filtered with a 0.45 μm paper filter.
The ethyl acetate:heptane crystallizations outlined in EXAMPLE 10 were repeated at larger scales. […]

[3] = 2-propanol/tetrahydrofuran 95/5 v/v, 40 mg/mL
[4] = acetone/2-propanol 67/33 v/v, 40 mg/mL
[5] = acetone/tetrahydrofuran 95/5 v/v, 40 mg/mL
[6] = ethyl acetate/2-propanol 50/50 v/v, 100 mg/mL
[7] = ethyl acetate/tetrahydrofuran 95/5 v/v, 40 mg/mL
[8] = heptane/2-propanol 50/50 v/v, 40 mg/mL

- solubility ([1]; 2-propanol/THF (95/5 v/v), organic solvent or mixture, thermodynamic from solid, 2-propanol/THF (95/5 v/v), high temperature, precipitated during cooling, read-out: Solubility): 40 mg/mL (≈ 107 mM)
- solubility ([1]; 2-propanol/tetrahydrofuran 95/5 v/v, organic solvent or mixture, thermodynamic from solid, 2-propanol/tetrahydrofuran 95/5 v/v, 100 mg/mL, high temperature, read-out: Solubility HT (100 mg/mL): Sol. HT): < 100 mg/mL
- Solubility HT (40 mg/mL): Clear point [1, 3]: 52.8 °C
- Solubility HT (40 mg/mL): Cloudy point [1, 3]: 28.6 °C
- Solubility HT (40 mg/mL): Sol. HT ([1]; 2-propanol/tetrahydrofuran 95/5 v/v, 40 mg/mL, high temperature): YES
- Solubility HT (40 mg/mL): Re-PPT ([1]; 2-propanol/tetrahydrofuran 95/5 v/v, 40 mg/mL, on cooling): YES
- solubility ([1]; acetone/2-propanol 67/33 v/v, organic solvent or mixture, thermodynamic from solid, acetone/2-propanol 67/33 v/v, 100 mg/mL, high temperature, read-out: Solubility HT (100 mg/mL): Sol. HT): < 100 mg/mL
- Solubility HT (40 mg/mL): Clear point [1, 4]: 36.8 °C
- Solubility HT (40 mg/mL): Re-PPT after 18 hours at −20° C. [1, 4]: YES
- Solubility HT (40 mg/mL): Sol. HT ([1]; acetone/2-propanol 67/33 v/v, 40 mg/mL, high temperature): YES
- solubility ([1]; acetone/2-propanol (63/37 v/v), high temperature, precipitated after 18 hours at −20° C.): soluble
- solubility ([1]; acetone/THF (95/5 v/v), high temperature, precipitated after 18 hours at −20° C.): soluble
- solubility ([1]; acetone/acetonitrile 50/50 v/v, organic solvent or mixture, thermodynamic from solid, acetone/acetonitrile 50/50 v/v, 40 mg/mL, high temperature, read-out: Solubility HT (40 mg/mL): Sol. HT): < 40 mg/mL
- solubility ([1]; acetone/acetonitrile 50/50 v/v, organic solvent or mixture, thermodynamic from solid, acetone/acetonitrile 50/50 v/v, 100 mg/mL, high temperature, read-out: Solubility HT (100 mg/mL): Sol. HT): < 100 mg/mL
- solubility ([1]; acetone/acetonitrile (50/50 v/v), organic solvent or mixture, thermodynamic from solid, acetone/acetonitrile (50/50 v/v), high temperature, read-out: Solubility): < 40 mg/mL
- solubility ([1]; acetone/ethyl acetate 50/50 v/v, organic solvent or mixture, thermodynamic from solid, acetone/ethyl acetate 50/50 v/v, 40 mg/mL, high temperature, read-out: Solubility HT (40 mg/mL): Sol. HT): < 40 mg/mL
- solubility ([1]; acetone/ethyl acetate 50/50 v/v, organic solvent or mixture, thermodynamic from solid, acetone/ethyl acetate 50/50 v/v, 100 mg/mL, high temperature, read-out: Solubility HT (100 mg/mL): Sol. HT): < 100 mg/mL
- solubility ([1]; acetone/ethyl acetate (50/50 v/v), organic solvent or mixture, thermodynamic from solid, acetone/ethyl acetate (50/50 v/v), high temperature, read-out: Solubility): < 40 mg/mL
- solubility ([1]; acetone/tetrahydrofuran 95/5 v/v, organic solvent or mixture, thermodynamic from solid, acetone/tetrahydrofuran 95/5 v/v, 100 mg/mL, high temperature, read-out: Solubility HT (100 mg/mL): Sol. HT): < 100 mg/mL
- Solubility HT (40 mg/mL): Clear point [1, 5]: 47.5 °C
- Solubility HT (40 mg/mL): Re-PPT after 18 hours at −20° C. [1, 5]: YES
- Solubility HT (40 mg/mL): Sol. HT ([1]; acetone/tetrahydrofuran 95/5 v/v, 40 mg/mL, high temperature): YES
- solubility ([1]; butyl ethyl ether/methanol (50/50 v/v), organic solvent or mixture, thermodynamic from solid, butyl ethyl ether/methanol (50/50 v/v), high temperature, read-out: Solubility): 40 to 100 mg/mL (≈ 107 to 268 mM)
- solubility ([1]; butyl methyl ether/methanol 50/50 v/v, organic solvent or mixture, thermodynamic from solid, butyl methyl ether/methanol 50/50 v/v, 100 mg/mL, high temperature, read-out: Solubility HT (100 mg/mL): Sol. HT): < 100 mg/mL
- Solubility HT (40 mg/mL): Clear point ([1]; butyl methyl ether/methanol 50/50 v/v, 40 mg/mL): 31.8 °C
- Solubility HT (40 mg/mL): Sol. HT ([1]; butyl methyl ether/methanol 50/50 v/v, 40 mg/mL, high temperature): YES
- Solubility HT (100 mg/mL): Clear point [1, 6]: 59.8 °C
- Solubility HT (100 mg/mL): Cloudy point [1, 6]: 25 °C
- Solubility HT (100 mg/mL): Sol. HT ([1]; ethyl acetate/2-propanol 50/50 v/v, 100 mg/mL, high temperature): YES
- Solubility HT (100 mg/mL): Re-PPT ([1]; ethyl acetate/2-propanol 50/50 v/v, 100 mg/mL, on cooling): YES
- solubility ([1]; ethyl acetate/2-propanol (50/50 v/v), organic solvent or mixture, thermodynamic from solid, ethyl acetate/2-propanol (50/50 v/v), high temperature, precipitated during cooling, read-out: Solubility): 100 mg/mL (≈ 268 mM)
- solubility ([1]; ethyl acetate/THF (95/5 v/v), organic solvent or mixture, thermodynamic from solid, ethyl acetate/THF (95/5 v/v), high temperature, precipitated during cooling, read-out: Solubility): 40 mg/mL (≈ 107 mM)
- solubility ([1]; ethyl acetate/tetrahydrofuran 95/5 v/v, organic solvent or mixture, thermodynamic from solid, ethyl acetate/tetrahydrofuran 95/5 v/v, 100 mg/mL, high temperature, read-out: Solubility HT (100 mg/mL): Sol. HT): < 100 mg/mL
- Solubility HT (40 mg/mL): Clear point [1, 7]: 56.3 °C
- Solubility HT (40 mg/mL): Cloudy point [1, 7]: 51.3 °C
- Solubility HT (40 mg/mL): Sol. HT ([1]; ethyl acetate/tetrahydrofuran 95/5 v/v, 40 mg/mL, high temperature): YES
- Solubility HT (40 mg/mL): Re-PPT ([1]; ethyl acetate/tetrahydrofuran 95/5 v/v, 40 mg/mL, on cooling): YES
- solubility ([1]; heptane/2-propanol 50/50 v/v, organic solvent or mixture, thermodynamic from solid, heptane/2-propanol 50/50 v/v, 100 mg/mL, high temperature, read-out: Solubility HT (100 mg/mL): Sol. HT): < 100 mg/mL
- Solubility HT (40 mg/mL): Clear point [1, 8]: 64.5 °C
- Solubility HT (40 mg/mL): Cloudy point [1, 8]: 33.7 °C
- Solubility HT (40 mg/mL): Sol. HT ([1]; heptane/2-propanol 50/50 v/v, 40 mg/mL, high temperature): YES
- Solubility HT (40 mg/mL): Re-PPT ([1]; heptane/2-propanol 50/50 v/v, 40 mg/mL, on cooling): YES
- solubility ([1]; heptane/2-propanol (50/50 v/v), organic solvent or mixture, thermodynamic from solid, heptane/2-propanol (50/50 v/v), high temperature, precipitated during cooling, read-out: Solubility): 40 mg/mL (≈ 107 mM)
- solubility ([1]; heptane/ethyl acetate 50/50 v/v, organic solvent or mixture, thermodynamic from solid, heptane/ethyl acetate 50/50 v/v, 40 mg/mL, high temperature, read-out: Solubility HT (40 mg/mL): Sol. HT): < 40 mg/mL
- solubility ([1]; heptane/ethyl acetate 50/50 v/v, organic solvent or mixture, thermodynamic from solid, heptane/ethyl acetate 50/50 v/v, 100 mg/mL, high temperature, read-out: Solubility HT (100 mg/mL): Sol. HT): < 100 mg/mL
- solubility ([1]; heptane/ethyl acetate (50/50 v/v), organic solvent or mixture, thermodynamic from solid, heptane/ethyl acetate (50/50 v/v), high temperature, read-out: Solubility): < 40 mg/mL
- solubility ([1]; heptane/toluene 50/50 v/v, organic solvent or mixture, thermodynamic from solid, heptane/toluene 50/50 v/v, 40 mg/mL, high temperature, read-out: Solubility HT (40 mg/mL): Sol. HT): < 40 mg/mL
- solubility ([1]; heptane/toluene 50/50 v/v, organic solvent or mixture, thermodynamic from solid, heptane/toluene 50/50 v/v, 100 mg/mL, high temperature, read-out: Solubility HT (100 mg/mL): Sol. HT): < 100 mg/mL
- solubility ([1]; heptane/toluene (50/50 v/v), organic solvent or mixture, thermodynamic from solid, heptane/toluene (50/50 v/v), high temperature, read-out: Solubility): < 40 mg/mL
- solubility ([1]; water/2-propanol 50/50 v/v, aqueous with cosolvent or surfactant or cyclodextrin, thermodynamic from solid, water/2-propanol 50/50 v/v, 40 mg/mL, high temperature, read-out: Solubility HT (40 mg/mL): Sol. HT): < 40 mg/mL
- solubility ([1]; water/2-propanol 50/50 v/v, aqueous with cosolvent or surfactant or cyclodextrin, thermodynamic from solid, water/2-propanol 50/50 v/v, 100 mg/mL, high temperature, read-out: Solubility HT (100 mg/mL): Sol. HT): < 100 mg/mL
- solubility ([1]; water/2-propanol (50/50 v/v), aqueous with cosolvent or surfactant or cyclodextrin, thermodynamic from solid, water/2-propanol (50/50 v/v), high temperature, read-out: Solubility): < 40 mg/mL
- solubility ([1]; water/THF (50/50 v/v), aqueous with cosolvent or surfactant or cyclodextrin, thermodynamic from solid, water/THF (50/50 v/v), high temperature, read-out: Solubility): < 40 mg/mL
- solubility ([1]; water/acetonitrile 50/50 v/v, aqueous with cosolvent or surfactant or cyclodextrin, thermodynamic from solid, water/acetonitrile 50/50 v/v, 40 mg/mL, high temperature, read-out: Solubility HT (40 mg/mL): Sol. HT): < 40 mg/mL
- solubility ([1]; water/acetonitrile 50/50 v/v, aqueous with cosolvent or surfactant or cyclodextrin, thermodynamic from solid, water/acetonitrile 50/50 v/v, 100 mg/mL, high temperature, read-out: Solubility HT (100 mg/mL): Sol. HT): < 100 mg/mL
- solubility ([1]; water/acetonitrile (50/50 v/v), aqueous with cosolvent or surfactant or cyclodextrin, thermodynamic from solid, water/acetonitrile (50/50 v/v), high temperature, read-out: Solubility): < 40 mg/mL
- solubility ([1]; water/tetrahydrofuran 95/5 v/v, aqueous with cosolvent or surfactant or cyclodextrin, thermodynamic from solid, water/tetrahydrofuran 95/5 v/v, 40 mg/mL, high temperature, read-out: Solubility HT (40 mg/mL): Sol. HT): < 40 mg/mL
- solubility ([1]; water/tetrahydrofuran 95/5 v/v, aqueous with cosolvent or surfactant or cyclodextrin, thermodynamic from solid, water/tetrahydrofuran 95/5 v/v, 100 mg/mL, high temperature, read-out: Solubility HT (100 mg/mL): Sol. HT): < 100 mg/mL
- XRPD Results Phase in traces ([2]; PAD-GRAD): Form XVI
- XRPD Results Phase in traces ([2]; PAI-GRAD): Form IX
Structure (SMILES): CC/C(=C(\c1ccc(O)cc1)c1ccc(OCCNC)cc1)c1ccccc1 [(Z)-endoxifen, (Z)-4-(1-(4-(2-(methylamino)ethoxy)phenyl)-2-phenylbut-1-enyl)phenol]
